Data: patent US6399614B1, “1-(N-phenylaminoalkyl)piperazine derivatives substituted at position 2 of the phenyl ring” (Recordati S.A. Chemical and Pharmaceutical Company, priority 1997, dated 2002)
Where two headings read alike, the source gives them in different places.

Experiments:
[1] = test system: rhythmic bladder voiding contractions; assay: Volume-induced rhythmic bladder voiding contractions in anaesthetized rats; type: in vivo, rat; conditions: Rattus norvegicus, intravenous; for ED (10 min disappearance of contractions): extrapolated dose inducing 10 min of disappearance of the contractions, anaesthetized rats, read-out: ED10 min; for ED50: extrapolated dose inducing a reduction of the number of contractions >30% in 50% of treated rats, read-out: ED50 (frequency)
urinary bladder = assay: Cystometric parameters (cystometrogram) in conscious rats; type: in vivo, rat; conditions: for BVC after treatment / MP after treatment: mean ± S.E.; for change in vivo at 0.1 mg/kg / change in vivo at 0.3 mg/kg / change in vivo at 1 mg/kg: Rattus norvegicus, iv, 0.25 h, after vs before; for change in vivo at 0.1 mg/kg: i.v. 100 μg/kg; for change in vivo at 0.3 mg/kg: i.v. 300 μg/kg; for change in vivo at 1 mg/kg: i.v. 1000 μg/kg

SMILES | ED (10 min disappearance of contractions) [1] | ED50 [1] | BVC after treatment (urinary bladder; 15 min after i.v. 100 μg/kg) | MP after treatment (urinary bladder; 15 min after i.v. 100 μg/kg) | BVC after treatment (urinary bladder; 15 min after i.v. 300 μg/kg) | MP after treatment (urinary bladder; 15 min after i.v. 300 μg/kg) | change in vivo at 0.1 mg/kg (urinary bladder; read-out: BVC % of change) | change in vivo at 0.1 mg/kg (urinary bladder; read-out: MP % of change) | change in vivo at 0.3 mg/kg (urinary bladder; read-out: BVC % of change) | change in vivo at 0.3 mg/kg (urinary bladder; read-out: MP % of change) | BVC after treatment (urinary bladder; 15 min after i.v. 1000 μg/kg) | MP after treatment (urinary bladder; 15 min after i.v. 1000 μg/kg) | change in vivo at 1 mg/kg (urinary bladder; read-out: BVC % of change) | change in vivo at 1 mg/kg (urinary bladder; read-out: MP % of change) | i.v. dose at which a significant increase in BVC was observed (urinary bladder; conscious rats, i.v.) | effect on MP (in words) (urinary bladder; conscious rats, i.v.)
O=C(C1CCCCC1)N(CCN1CCN(c2cccc3[nH]ccc23)CC1)c1ccccc1[N+](=O)[O-] [Example 13, 1-[N-(2-nitrophenyl)-N-cyclohexylcarbonyl-2-aminoethyl]-4-(4-indolyl)piperazine] | 0.266 mg/kg | 0.029 mg/kg | 1.07 ± 0.14 mL | 75.6 ± 13.7 mmHg | 0.95 ± 0.12 mL | 65.7 ± 13.8 mmHg | 13.4% | -12.5% | 30.2% | -10.6% | – | – | – | – | – | –
COc1ccccc1N1CCN(CCN(C(=O)C2CCCCC2)c2ccccc2OC)CC1 [Example 23, 1-[N-(2-methoxyphenyl)-N-cyclohexylcarbonyl-2-aminoethyl]-4-(2-methoxyphenyl)piperazine] | 0.093 mg/kg | 0.018 mg/kg | – | – | 0.77 ± 0.03 mL | 86.4 ± 10.0 mmHg | – | – | 54.3% | -7.6% | 0.89 ± 0.12 mL | 61.9 ± 8.5 mmHg | 34.5% | -17.1% | – | –
COc1ccccc1N1CCN(CCN(C(=O)C2CCCCC2)c2ccccc2)CC1 [Compound A, 1-(N-phenyl-N-cyclohexylcarbonyl-2-aminoethyl)-4-(2-methoxyphenyl)piperazine, reference compound] | 0.65 mg/kg | 0.033 mg/kg | – | – | 0.87 ± 0.05 mL | 85.6 ± 11.3 mmHg | – | – | 7.4% | -5.5% | 0.97 ± 0.11 mL | 84.1 ± 5.2 mmHg | 24.4% | -6.8% | 1.0 mg/kg | –
COC(=O)c1ccccc1N(CCN1CCN(c2ccccc2OC)CC1)C(=O)C1CCCCC1 [Example 18, 1-[N-(2-methoxycarbonylphenyl)-N-cyclohexylcarbonyl-2-aminoethyl]-4-(2-methoxyphenyl)piperazine] | 0.101 mg/kg | 0.017 mg/kg | 0.80 ± 0.09 mL | 48.5 ± 4.9 mmHg | – | – | 33.3% | -34.3% | – | – | 0.89 ± 0.16 mL | 79.3 ± 17.0 mmHg | 40.3% | -13.5% | – | –
COc1ccccc1N1CCN(CCN(C(=O)C2CCCCC2)c2ccccc2[N+](=O)[O-])CC1 [Example 2, 1-[N-(2-nitrophenyl)-N-cyclohexylcarbonyl-2-aminoethyl]-4-(2-methoxyphenyl) piperazine] | 0.06 mg/kg | 0.009 mg/kg | – | – | 0.87 ± 0.10 mL | 80.4 ± 6.5 mmHg | – | – | 22.5% | -15.7% | 0.75 ± 0.10 mL | 99.6 ± 11.2 mmHg | 21% | -8.6% | 0.3 mg/kg | slight, albeit significant, decrease in MP
